Common to all, as to format: cell-based, human
The test system of assay [1] is collagen. In words: Influence of palmitoyl group: collagen synthesis by RGD and Pal-RGD peptides. The following applies: FIG. 10. The procedure:
Then, the treated cells were sonicated in the lysis buffer (150 mM NaCl, 1% Triton X-100, 10 mM Tris, […], pH 7.4). Thereafter, supernatant was isolated through centrifugation, and quantification was performed through Bradford assay. The same amount of a protein was mixed in a 5× sample buffer, and the mixture was heated for 5 minutes at 95° C. The resultant was electrophoresed on 6-15% concentration gradient SDS-polyacrylamide gel electrophoresis (SDS-PAGE), and then adsorbed to a nitrocellulose membrane. An anti-type I collagen primary antibody (Rockland, USA) and anti-actin primary antibody (Santa Cruz, USA) were diluted in TBST buffer (Tris buffered saline with 0.05% Tween 20, pH 7.6) including 5% skimmed milk and reacted for 16 hours. Then, the resultant was washed with TBST for 10 minutes 6 times. Thereafter, the membrane was treated with an anti-mouse rabbit peroxidase-conjugated secondary antibody (KPL, USA) for reaction for one hour at room temperature, and washed again with TBST 6 times for 10 minutes followed by development with the enhanced chemiluminescent (ECL) solution (Amersham, USA) for evaluation. In addition, the western blot image was quantitatively compared with densitometric analysis by using image J program (Ver 1.38, //rsbweb.nih.gov/ij/index.html). […]

The subject of assay [2] is collagen I expression induced by YIGSR peptide. Nature of the assay: YIGSR peptide-induced collagen I expression under FAK and MEK inhibitors, western blot. The following applies: Hs27 cells, 1 μM inhibitor with 1 μM YIGSR peptide, 24 hours. The procedure: To evaluate whether collagen I expression induced by YIGSR peptide according to one embodiment of the present invention is mediated by FAK and MAPK or not, FAK and MEK inhibitors were used.
Hs27 cells of Example 3 were cultured in a 24-well plate provided that the cells were cultured in a serum-free state for 24 hours. Then, the cells were treated with 1 μM of the FAK-specific inhibitor, PF573228 (Tocris Bioscience, United Kingdom) for 24 hours.

Assay [3] relates to type I collagen. Nature of the assay: Type I collagen synthesis by Pal-YIGSR peptide, immunoblotting in Hs27 skin fibroblasts. The following applies: for effect compared with the original YIGSR peptide: collagen I production, summary statement b41. The procedure:
Hs27 skin fibroblasts, which are under culture, were treated with the peptide derivatives prepared in Examples 1 and 2, and Comparative Example 2, and an amount of expressed type I collagen in the cells were measured by an immunoblotting method. The Hs27 skin fibroblasts were cultured by using DMEM medium, (Lonza, USA), to which 10% FBS was added (Lonza, USA), under the condition of 95% of humidity, 5% CO2, and 37° C. Hs27 skin fibroblasts were treated with each concentration of the peptide (0, 2, 25, 50 and 100 μM) for 24 hours or 100 μM of the peptide for each period of time (0, 0.5, 6, 12 and 24 hours). Then, the treated cells were sonicated in the lysis buffer (150 mM NaCl, 1% Triton X-100, 10 mM Tris, 1 mM EDTA, pH 7.4). Thereafter, supernatant was isolated through centrifugation, and quantification was performed through Bradford assay. The same amount of a protein was mixed in a 5× sample buffer and the mixture was heated for 5 minutes at 95° C. The resultant was electrophoresed on 6-15% concentration gradient SDS-Polyacrylamide gel electrophoresis (SDS-PAGE) and then adsorbed to a nitrocellulose membrane. Anti-type I collagen primary antibody (Rockland, USA), anti-phospho-ERK primary antibody (Cell signaling, USA), and anti-actin primary antibody (Santa Cruz, USA) were diluted in TBST buffer (Tris buffered saline with 0.05% Tween 20, pH 7.6) including 5% skimmed milk and reacted for 16 hours. Then, the resultant was washed with TBST for 10 minutes 6 times. Then, the membrane was treated with anti-mouse rabbit peroxidase-conjugated secondary antibody (KPL, USA) for reaction for one hour at room temperature, and washed again with TBST 6 times for 10 minutes followed by development with the enhanced chemiluminescent (ECL) solution (Amersham, USA) for evaluation.

The test system of assay [4] is ERK. Nature of the assay: ERK phosphorylation by Pal-YIGSR peptide, immunoblotting in Hs27 skin fibroblasts. As to conditions: FIG. 8. The procedure: Hs27 skin fibroblasts, which are under culture, were treated with the peptide derivatives prepared in Examples 1 and 2, and Comparative Example 2, and an amount of expressed type I collagen in the cells were measured by an immunoblotting method. The Hs27 skin fibroblasts were cultured by using DMEM medium, (Lonza, USA), to which 10% FBS was added (Lonza, USA), under the condition of 95% of humidity, 5% CO2, and 37° C. Hs27 skin fibroblasts were treated with each concentration of the peptide (0, 2, 25, 50 and 100 μM) for 24 hours or 100 μM of the peptide for each period of time (0, 0.5, 6, 12 and 24 hours). Then, the treated cells were sonicated in the lysis buffer (150 mM NaCl, 1% Triton X-100, 10 mM Tris, 1 mM EDTA, pH 7.4). Thereafter, supernatant was isolated through centrifugation, and quantification was performed through Bradford assay. The same amount of a protein was mixed in a 5× sample buffer and the mixture was heated for 5 minutes at 95° C. The resultant was electrophoresed on 6-15% concentration gradient SDS-Polyacrylamide gel electrophoresis (SDS-PAGE) and then adsorbed to a nitrocellulose membrane. […]
On the technique in general: In western blotting, separated proteins are transferred to a membrane and probed.

The subject of assay [5] is Hs27 skin fibroblasts. In words: Cell growth by crystal violet assay. As to conditions: 72 hours. The procedure: The Hs27 skin fibroblasts were seeded on a 24-well culture plate (40,000 cells per each), and cultured under 5% CO2, and 37° C. for 24 hours to allow cells to be attached to a bottom of the culture plate. Next day, a medium was changed to a medium including FBS. Then, cells were cultured again for 24 hours and treated with the peptide derivatives of Examples 1 and 2, and Comparative Examples 1 and 2 followed by further culture of 72 hours. Then, cell growth was measured through crystal violet assay.
Specifically, the medium in each well was removed, and […] of 0.1% crystal violet solution was added to each well followed by 5 minutes of staining. Then, the crystal violet solution was removed, and wells were washed with deionized water four times until the well became transparent. When the washed distilled water became transparent, distilled water was removed. Then, 1 ml of 95% ethanol was added with stirring for 20 minutes to dissolve crystal violet from stained cells. […] of the solution was dispensed to a 96-well plate, and absorbance was measured at 590 nm by using ELISA reader. Then, relative cell growth was calculated by using, as a control, a group which was not treated with a material to be tested.

No end group written: not given here. *: point of attachment. Palmitoyl = CCCCCCCCCCCCCCCC(=O)*; Oleyl = CCCCCCCC/C=C\CCCCCCCC*

The values below come from US9999649B2, “Peptide having ability to synthesize collagen and use thereof” (NOVACELL TECHNOLOGY INC., priority 2013, dated 2018).

Take RGD [RGD peptide]: in assay [1], the “collagen synthesis degree versus control” value is listed as “not significantly different from that of the control”.
Consider `COc1cccc(-c2cc(=O)c3ccccc3o2)c1N` [PD98059], for which the “effect of inhibitor on collagen I expression induced by YIGSR peptide” value in assay [2] is listed as “remarkably inhibited”.
For “Palmitoyl-YIGSR [Pal-YIGSR, peptide derivative in which a palmitoyl group is attached to an N-terminal of the YIGSR peptide]”, in assay [3] (0, 2, 25, 50 and 100 μM, 24 hours), the “amount of synthesized collagen depending on concentration” value was “increased as concentration increased”. Further, in assay [3] (100 μM, 0, 0.5, 6, 12 and 24 hours), the “amount of synthesized collagen depending on exposure time” value is on record as “increased as exposure time increased”. The “effect compared with the original YIGSR peptide” value in assay [3] is “more potent effect than the YIGSR peptide”. The ERK phosphorylation induction result in assay [4] is recorded as “observed”. In addition, the results for the “cell growth relative to untreated control” value in assay [5] (100 μM) and in assay [5] (500 μM) were 13% and 23%, respectively. The “concentration range in which cell growth was shown” value in assay [5] was 0.5 to 50 µM.
As for `CS(=O)(=O)c1cccc(CNc2nc(Nc3ccc4c(c3)CCC(=O)N4)ncc2C(F)(F)F)c1` [PF573228], the “effect of inhibitor on collagen I expression induced by YIGSR peptide” value in assay [2] is “remarkably repressed”.
On to “Oleyl-YIGSR [YIGSR peptide having an N-terminal, to which an oleyl group is added instead of the palmitoyl group]”, for which, in assay [3] (Hs27 skin fibroblasts, FIG. 7), the “degree of collagen synthesis compared with control and Pal-YIGSR” value is recorded as “no difference from the control”. The “effect compared with the original YIGSR peptide” value in assay [3] was “no improved activity”. Besides, the ERK phosphorylation induction result in assay [4] was “rarely affect ERK phosphorylation”.
For Pal-RGD [Pal-RGD peptide], the “collagen synthesis degree versus control” value in assay [1] was “not significantly different from that of the control”.
